Columns and labels:
[1] = tested on: 70S ribosomes from E. coli (23S rRNA); assay: Crosslinking of CAM dimers to ribosomes upon 365 nm irradiation; type: binding; conditions: R*I complex, 365 nm light for 30 min, compound at 10×K i
Description: Specifically, a mixture of E. coli ribosomes together with either 4 or 5, each added to the incubation mixture at concentration equal to 10×K i, were irradiated for 30 min with 365 nm light. Following purification, the irradiation products were analyzed by primer extension. […] In contrast, compound 4 crosslinked to C2611, without raising any modification signal in the A2058-A2059 region. It should be mentioned that the concentrations used for compounds 4 and 5 in this series of experiments were much lower (<60 μM) than those of CAM utilized previously by Long & Porse. […]
Fig 5 CAM dimer crosslinking at the entrance to the exit tunnel, upon UV-irradiation. […] The irradiation products were analyzed by probing with DMS (panels A and B) or CMCT (panel C) and primer extension, before (lanes 3 and 6) or after discharging from excess CAM dimer (lanes 2 and 5). […]
Following formation of R*I complexes, the samples were irradiated at 365 nm, for 30 min, in a Vilber Lourmat UV Cabinet (VL-215.LC-30W) light source. […] Half of the sample was probed with DMS or CMCT, and then analyzed by primer extension as shown above, while the other half was extracted with phenol, phenol-chloroform (1:1), and chloroform, followed by ethanol precipitation to remove non-crosslinked agents. […]

[2] = tested on: human peripheral blood cells; assay: Toxicity assays in human peripheral blood cells; type: cell-based
Description: Fig 7 Toxicity assays in human peripheral blood cells. Peripheral blood was collected in EDTA-coated tubes from 5 healthy volunteers (age range: 25–30 years). Concentration was adjusted to 1.8×10^9 cells/L using RPMI-1640 medium containing 1% penicillin/streptomycin. Cells were cultured in triplicate in the presence or the absence of 30 or 60 μM CAM or compound 5, under a humidified 5% CO2 atmosphere for 5 days, at 37°C. Cultures were counted daily by a CELL-DYN 3700 Hematology Analyzer and values were expressed as a percentage of cells measured in controls.
Peripheral blood was collected in EDTA-coated tubes from 5 healthy volunteers (age range: 25–30 years). Cell concentration was adjusted to 5×10^8 cells/l using RPMI-1640 medium (GIBCO BRL) containing 1% penicillin/streptomycin. Cells were cultured in triplicate under a humidified 5% CO2 atmosphere for 5 days, at 37°C, in the absence (control cultures) or the presence of CAM or CAM dimers. Counting of cells was performed daily in a CELL-DYN 3700 Hematology Analyzer (Abbott, USA) and values were expressed as a percentage of cells measured in control cultures.

[3] = tested on: Jurkat cells; assay: Toxicity assays in Jurkat cells (cell counting, necrosis and apoptosis by flow cytometry); type: cell-based, Human
Description: Fig 8 Toxicity assays in Jurkat cells. Jurkat cells were adjusted to 1×10^9 cells/L in RPMI-1640 medium containing 1% Penicillin/Streptomycin and 10% fetal bovine serum. The cells were grown in triplicate in the presence or absence of compound 5 at the indicated concentrations for 4 days at 37°C, under a humidified 5% CO2 atmosphere. CAM was used as a reference compound. For cell necrosis and apoptosis assays, samples (10^6 cells) were collected daily and determined by flow cytometry. Apoptotic and necrotic cells were expressed as a percentage of total cells.
(§1) Human leukemic cell lines, HS-Sultan (Burkitt’s lymphoma), Jurkat (T-cell acute lymphoblastic leukemia), and U937 (histiocytic lymphoma), were adjusted to 1×10^9 cells/l in RPMI-1640 medium supplemented with 10% fetal bovine serum and 1% penicillin/streptomycin. The cells were grown in triplicate in the absence (control cultures) or presence of CAM or CAM dimers for 4 days at 37°C, under a humidified 5% CO2 atmosphere. The medium was changed daily; CAM or CAM dimer addition was repeated after medium change. Aliquots were collected daily and counted in a CELL-DYN 3700 Hematology Analyzer. For cell necrosis and apoptosis assays, samples (10^6 cells) were collected and determined using the Annexin V-PE Apoptosis Detection Kit I (BD Pharmingen) for flow cytometry, according to the manufacturers’ instructions. Flow cytometry data were analyzed using the FlowJo flow cytometry analysis software. Necrotic and apoptotic cells were expressed as a percentage of total cells.

[4] = tested on: HS-Sultan cells; assay: Toxicity assay in leukemic cell line (cell counting); type: cell-based, Human; conditions: daily cell counting
Description: as §1
(§2) S4 Fig. Toxicity assays in Human leukemic cell lines. HS-Sultan, Jurkat, and U937 cell lines were adjusted to […] in RPMI-1640 medium containing 1% Penicillin/Streptomycin and 10% fetal bovine serum. […] Aliquots were collected daily and counted in a CELL-DYN 3700 Hematology Analyzer.

[5] = tested on: U937 cells; assay: as above; type: cell-based, Human; conditions: daily cell counting
Description: as §1, §2

SMILES: O=C(N[C@H](CO)[C@H](O)c1ccc([N+](=O)[O-])cc1)c1ccc(C(=O)N[C@H](CO)[C@H](O)c2ccc([N+](=O)[O-])cc2)cc1 [Compound 5, N^1,N^4-Bis ((1R,2R)-1,3-dihydroxy-1-(4-nitrophenyl)propan-2-yl)-terephthalamide]
- nucleoside(s) of 23S rRNA crosslinked [1]: C2610, and less to nucleosides A2058 and A2059
- toxicity against other types of leukocytes [2]: negligible
- time of peak toxicity on neutrophils ([2]; 120 h exposure of blood cells): 48 h
- toxicity on neutrophils ([2]; 120 h exposure of blood cells, 30 or 60 μM): mild and transient toxicity
- apoptosis, expressed as a percentage of total cells ([3]; 60 μM, flow cytometry): 43%
- necrosis ([3]; 60 μM, flow cytometry): failed to induce necrosis
- growth of Jurkat cells ([3]; daily cell counting, all tested concentrations): the rate of growth was reduced proportionally to the concentration
- sensitivity of HS-Sultan cells [4]: insensitive
- sensitivity of U937 cells [5]: insensitive

From article PMC4533973, “Synthesis and Evaluation of Chloramphenicol Homodimers: Molecular Target, Antimicrobial Activity, and Toxicity against Human Cells” (PLoS ONE, 2015)
